Measured values from patent publication US9237747B2, “Herbicidal compositions comprising 4-amino-3-chloro-5-fluoro-6-(4-chloro-2-fluoro-3-methoxyphenyl) pyridine-2-carboxylic acid or a derivative thereof and insecticides” (priority 2013, dated 2016).

How the values were obtained:
BRAPP = assay: Postemergence foliar-applied weed control, direct-seeded rice (greenhouse); assay type: in vivo, Brachiaria platyphylla
Description: Seeds or nutlets of the desired test plant species were planted in a soil matrix prepared by mixing a loam or sandy loam soil (e.g., 28.6 percent silt, 18.8 percent clay, and 52.6 percent sand, with a pH of about 5.8 and an organic matter content of about 1.8 percent) and calcareous grit in an 80 to 20 ratio. The soil matrix was contained in plastic pots with a volume of 1 quart and a surface area of 83.6 square centimeters (cm^2). When required to ensure good germination and healthy plants, a fungicide treatment and/or other chemical or physical treatment was applied. The plants were grown for 8-22 days in a greenhouse with an approximate 14 hour (h) photoperiod which was maintained at about 29° C. during the day and 26° C. during the night. Nutrients (Peters Excel® 15-5-15 5-Ca 2-Mg and iron chelate) were applied in the irrigation solution as needed and water was added on a regular basis. Supplemental lighting was provided with overhead metal halide 1000-Watt lamps as necessary. The plants were employed for testing when they reached the first through fourth true leaf stage.
Treatments consisted of the acid or esters of 4-amino-3-chloro-6-(4-chloro-2-fluoro-3-methoxyphenyl)-5-fluoropyridine-2-carboxylic acid (Compound A), each formulated as an SC (suspension concentrate), and various insecticidal components alone and in combination. Forms of compound A were applied on an acid equivalent basis.
Treatment requirements were calculated based upon the rates being tested, the concentration of active ingredient or acid equivalent in the formulation, and a 12 milliliter (mL) application volume at a rate of 187 liters per hectare (L/ha).
For treatments comprised of formulated compounds, measured amounts of compounds were placed individually in 25 mL glass vials and diluted in a volume of 1.25% volume per volume (v/v) Agri-Dex® crop oil concentrate to obtain 12× stock solutions. […] Application solutions were prepared by adding an appropriate amount of each stock solution (e.g., 1 mL) and diluted to the appropriate final concentrations with the addition of […] of an aqueous mixture of 1.25% (v/v) crop oil concentrate so that the final spray solutions contained 1.25+/−0.05% (v/v) crop oil concentrate.
As required, additional water and/or 97:3 v/v acetone/DMSO was added to individual application solutions so that the final acetone and DMSO concentrations of the application solutions being compared were 8.1% and 0.25%, respectively.
All stock solutions and applications solutions were visually inspected for compound compatibility prior to application. Spray solutions were applied to the plant material with an overhead Mandel track sprayer equipped with 8002E nozzles calibrated to deliver 187 L/ha over an application area of 0.503 square meters (m^2) at a spray height of 18 to 20 inches (46 to 50 cm) above average plant canopy height. Control plants were sprayed in the same manner with the solvent blank.
The treated plants and control plants were placed in a greenhouse as described above and watered by sub-irrigation to prevent wash-off of the test compounds. After approximately 3 weeks, the condition of the test plants as compared to that of the untreated plants was determined visually and scored on a scale of 0 to 100 percent where 0 corresponds to no injury or growth inhibition and 100 corresponds to complete kill.
Colby's equation was used to determine the herbicidal effects expected from the mixtures (Colby, S. R. Calculation of the synergistic and antagonistic response of herbicide combinations. Weeds 1967, 15, 20-22.).
The following equation was used to calculate the expected activity of mixtures containing two active ingredients, A and B: Expected=A+B−(A×B/100)

LEFCH = assay: In-water applied weed control, transplanted paddy rice (greenhouse); assay type: in vivo, Leptochloa chinensis
Procedure: Weed seeds or nutlets of the desired test plant species were planted in puddled soil (mud) prepared by mixing a shredded, non-sterilized mineral soil (50.5 percent silt, 25.5 percent clay, and 24 percent sand, with a pH of about 7.6 and an organic matter content of about 2.9 percent) and water at a 1:1 volumetric ratio. The prepared mud was dispensed in 365 mL aliquots into 16-ounce (oz.) non-perforated plastic pots with a surface area of 86.59 square centimeters (cm^2) leaving a headspace of 3 centimeters (cm) in each pot. Rice seeds were planted in Sun Gro MetroMix® 306 planting mixture, which typically has a pH of 6.0 to 6.8 and an organic matter content of about 30 percent, in plastic plug trays. Seedlings at the second or third leaf stage of growth were transplanted into 860 mL of mud contained in 32-oz. non-perforated plastic pots with a surface area of 86.59 cm^2 4 days prior to herbicide application. The paddy was created by filling the headspace of the pots with 2.5 to 3 cm of water. When required to ensure good germination and healthy plants, a fungicide treatment and/or other chemical or physical treatment was applied. The plants were grown for 4-22 days in a greenhouse with an approximate 14 h photoperiod which was maintained at about 29° C. during the day and about 26° C. during the night. Nutrients were added as Osmocote® (17:6:10, N:P:K+minor nutrients) at 2 grams (g) per 16-oz. pot and 4 g per 32-oz. pot. Water was added on a regular basis to maintain the paddy flood, and supplemental lighting was provided with overhead metal halide 1000-Watt lamps as necessary. The plants were employed for testing when they reached the first through fourth true leaf stage. […]
Treatment requirements for each compound or herbicidal component were calculated based upon the rates being tested, the concentration of active ingredient or acid equivalent in the formulation, an application volume of 2 mL per component per pot, and an application area of 86.59 cm^2 per pot.
For formulated compounds, a measured amount was placed in an individual 100 or 200 mL glass vial and was dissolved in a volume of 1.25% (v/v) AgriDex® crop oil concentrate to obtain application solutions. […]
The treated plants and control plants were placed in a greenhouse as described above and water was added as needed to maintain a paddy flood. After approximately 3 weeks the condition of the test plants as compared with that of the untreated plants was determined visually and scored on a scale of 0 to 100 percent where 0 corresponds to no injury or growth inhibition and 100 corresponds to complete kill. […]

Row | SMILES | Visual Weed Control (%) - 20 DAA BRAPP Obs (BRAPP; 4.38 g ae/ha alone) [%] | Visual Weed Control (%) - 20 DAA BRAPP Obs (BRAPP; 8 g ae/ha alone) [%] | Visual Weed Control (%) - 21 DAA BRAPP Obs (BRAPP; 8 g ae/ha alone) [%] | Visual Weed Control (%) - 20 DAA BRAPP Obs (BRAPP; 8.75 g ae/ha alone) [%] | Visual Weed Control (%) - 20 DAA BRAPP Obs (BRAPP; 17.5 g ae/ha alone) [%] | Visual Weed Control (%) - 19 DAA LEFCH Obs (LEFCH; 8 g ae/ha alone) [%] | Visual Weed Control (%) - 19 DAA LEFCH Obs (LEFCH; 16 g ae/ha alone) [%] | Visual Weed Control (%) - 19 DAA LEFCH Obs (LEFCH; 32 g ae/ha alone) [%] | Visual Weed Control (%) - 19 DAA LEFCH Obs (LEFCH; 150 g ai/ha alone) [%]
1 | COc1c(Cl)ccc(-c2nc(C(=O)O)c(Cl)c(N)c2F)c1F [Compound A Acid, 4-amino-3-chloro-6-(4-chloro-2-fluoro-3-methoxyphenyl)-5-fluoropyridine-2-carboxylic acid] | 70 | – | – | – | – | – | – | – | –
2 | COc1c(Cl)ccc(-c2nc(C(=O)OCc3ccccc3)c(Cl)c(N)c2F)c1F [Compound A Benzyl Ester] | 75 | 55 | 70 | 75 | 95 | 3 | 8 | 10 | –
3 | CC(c1ccc(C(F)(F)F)nc1)S(C)(=O)=NC#N (stereo not shown) [Sulfoxaflor, N-[methyloxido[1-[6-(trifluoromethyl)-3-pyridinyl]ethyl]-λ^4-sulfanylidene]cyanamide] | – | – | – | – | – | – | – | – | 0
